The values below are quoted from earlier work in patent US5006510A, “Method for relieving chronic pain with a somatostatin analog composition” (priority 1989, dated 1991).

For series [1] the following is noted: applied topically with N-decylmethylsulfoxide; mouse skin.
For series [2] the following is noted: applied topically with N-decylmethylsulfoxide; human skin.

Where two headings read alike, the source gives them in different places.

For `C[C@@H](O)[C@@H]1NC(=O)[C@H](CCCCN)NC(=O)[C@@H](Cc2c[nH]c3ccccc23)NC(=O)[C@H](Cc2ccccc2)NC(=O)[C@@H](NC(=O)[C@H](N)Cc2ccccc2)CSSC[C@@H](C(=O)N[C@H](CO)[C@@H](C)O)NC1=O` [octreotide, octreotide acetate], the skin permeation result was “permeates both human and mouse skin” in series [1]; “permeates both human and mouse skin” in series [2].
